Assays:
[1] = target: T1, FL-SHP2 (Homo sapiens, UniProt Q06124); test: PTPase assay on FLAG-tagged full-length SHP2 immunoprecipitated from MDA-MB468 cells; format: biochemical; conditions: FLAG-tagged FL-SHP2 on beads from MDA-MB468 cells, 20 μM DiFMUP
T1 construct: whether CNBCA is also effective against full-length SHP2 (FL-SHP2); expressed in transfected cells; host or cells: MDA-MB468
T1 sequence (Q06124 1-593): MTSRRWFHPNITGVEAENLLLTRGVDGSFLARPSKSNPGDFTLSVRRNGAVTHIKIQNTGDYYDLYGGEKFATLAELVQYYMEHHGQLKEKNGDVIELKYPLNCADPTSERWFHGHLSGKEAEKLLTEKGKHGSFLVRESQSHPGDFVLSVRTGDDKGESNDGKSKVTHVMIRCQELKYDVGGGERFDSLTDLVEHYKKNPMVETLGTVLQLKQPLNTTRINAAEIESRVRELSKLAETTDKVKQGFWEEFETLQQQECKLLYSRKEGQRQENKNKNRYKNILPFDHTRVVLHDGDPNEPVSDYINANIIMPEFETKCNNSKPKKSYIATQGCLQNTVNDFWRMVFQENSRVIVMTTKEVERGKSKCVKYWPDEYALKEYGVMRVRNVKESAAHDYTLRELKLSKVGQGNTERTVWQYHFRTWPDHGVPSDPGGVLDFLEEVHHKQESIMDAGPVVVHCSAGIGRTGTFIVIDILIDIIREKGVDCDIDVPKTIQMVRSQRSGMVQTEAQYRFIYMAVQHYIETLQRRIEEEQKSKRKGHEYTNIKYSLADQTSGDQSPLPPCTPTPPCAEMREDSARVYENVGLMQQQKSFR
From the text: To confirm efficiency of the expression, we conducted IB analysis of total protein extracts (TPE) prepared from the noncancerous MEF cells (mouse embryo fibroblasts), the MDA-MB468 BC cells that overexpress EGFR, and the BT474 BC cells that overexpress HER2. […] We also performed HER2 and EGFR IB analyses, which confirmed overexpression of these RTKs in the BC cells, but not in the MEF cells. […] Next, FL-SHP2 was immunoprecipitated (IP) with anti-FLAG antibody from the TPEs of the three cells (Figure 3F) and used for determining the activation state while still bound to protein-A sepharose beads, as described in the materials and methods. […] We thus used SHP2 expressed in BC cells to test the inhibitory effect of CNBCA on FL-SHP2. […]
For determining the inhibitory effect of CNBCA on FL-SHP2, a FLAG-tagged protein ectopically expressed in the EGFR overexpressing MDA-MB468 cells[8],[15] was used as an enzyme. […] After 20 min of incubation at 37 °C, 100 μL of the supernatant from each sample was transferred to 96-well plates, and fluorescence intensity measure as above, using the Synergy 4 plate reader. The resulting data was then analyzed with the Graphpad Prism software to draw the graph and determine the IC50 value.

[2] = system: MDA-MB468 cells; test: Colony formation in soft agar, MDA-MB468; format: cell-based; conditions: MDA-MB468, 500 nM, 10 days, versus vehicle
Protocol: Since SHP2 is essential for the growth and transformation of BC cells,[8],[9],[11] we determined the effect of SHP2 inhibition with CNBCA in 2D and 3D culture systems. For the effect on cell growth, BC cells (BT474 and MDA-MB468) were seeded in 2D culture and treated with a single concentration of CNBCA (500 nM), the concentration that provided a 50% inhibition of SHP2 mediated signaling in BT474 cells. Images were collected at the start and every 24 h for a total of 72 h (3 days). […] For effect on anchorage independent growth, approximately 10^6 cells were seeded in soft agar as described previously,[24] and treated with CNBCA at 500 nM concentration for 10 days with refeeding and adjustment of compound concentration. […] Finally, the effect of CNBCA on cancer stem cell properties was determined by the suspension assay, in which only cells with stem-like properties only can grow and form mammospheres.[7],[24],[36] Approximately 10^6 cells were seeded in nonadherent 6 cm plates and treated with CNBCA (500 nM) for 10 days with complementation of media and drug concentration.
For colony formation studies, we used the soft agar assay, which keeps cells anchorage independently, allowing determination on the transformation phenotype of cancer cells, including breast cancer cells.[11],[35] For this assay, we first prepared a 5% stock suspension in PBS by boiling it in a microwave. […]

## CCCCCCCCCOc1ccc(-c2ccc(C(=O)O)cc2)cc1CCCC(=O)O [CNBCA, 3′-(3-carboxypropyl)-4′-(nonyloxy)-[1,1′-biphenyl]-4-carboxylic acid]
[1]
  IC50: 615 nM
[2]
  colony formation in soft agar: fewer and smaller colonies

Source: article PMC10591299, “Targeting SHP2 with an Active Site Inhibitor Blocks Signaling and Breast Cancer Cell Phenotypes” (ACS Bio & Med Chem Au, 2023)
